Entries after “also recorded” stand apart in the source; their conditions may differ.
Columns and labels:
[1] = tested on: HepG2 cells; experiment: Phospholipidosis in HepG2 cells; type: cell-based; settings: highest concentration tested 100 μM
[2] = Plasma stability; type: in vitro ADME; settings: dog plasma, 1 hour incubation
[3] = target: T1, VAP-1/SSAO in gonadal fat tissue homogenate (Canis lupus familiaris, UniProt A0A8I3MYY3); experiment: SSAO activity, gonadal fat tissue homogenate; type: biochemical; settings: dog
T1 sequence (A0A8I3MYY3 1-763): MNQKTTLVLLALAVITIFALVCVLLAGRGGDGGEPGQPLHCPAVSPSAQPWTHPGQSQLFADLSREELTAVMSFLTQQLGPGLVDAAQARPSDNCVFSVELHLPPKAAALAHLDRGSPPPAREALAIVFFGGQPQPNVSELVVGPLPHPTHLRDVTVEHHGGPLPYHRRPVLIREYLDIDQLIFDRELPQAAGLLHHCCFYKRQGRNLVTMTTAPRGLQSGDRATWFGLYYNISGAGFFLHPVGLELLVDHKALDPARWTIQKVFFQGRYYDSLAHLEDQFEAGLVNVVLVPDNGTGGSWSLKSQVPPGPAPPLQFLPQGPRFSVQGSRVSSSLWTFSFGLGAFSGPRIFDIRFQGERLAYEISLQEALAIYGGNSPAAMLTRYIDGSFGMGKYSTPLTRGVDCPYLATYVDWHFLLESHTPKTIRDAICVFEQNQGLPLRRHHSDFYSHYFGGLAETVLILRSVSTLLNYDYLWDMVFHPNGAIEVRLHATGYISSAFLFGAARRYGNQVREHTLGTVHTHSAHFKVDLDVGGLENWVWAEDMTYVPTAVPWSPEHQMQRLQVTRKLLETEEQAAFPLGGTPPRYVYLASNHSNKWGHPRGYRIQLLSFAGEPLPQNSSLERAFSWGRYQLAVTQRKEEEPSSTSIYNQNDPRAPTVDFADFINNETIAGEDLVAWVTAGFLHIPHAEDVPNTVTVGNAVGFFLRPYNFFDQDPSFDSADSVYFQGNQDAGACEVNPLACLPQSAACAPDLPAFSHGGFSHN

[4] = tested on: BALB/c mice; experiment: Klebsiella pneumoniae lung infection
[5] = target: T2, Recombinant retina specific amine oxidase (AOC2) (Homo sapiens, UniProt O75106); experiment: AOC2 enzyme activity assay; type: biochemical
T2 sequence (O75106 1-756): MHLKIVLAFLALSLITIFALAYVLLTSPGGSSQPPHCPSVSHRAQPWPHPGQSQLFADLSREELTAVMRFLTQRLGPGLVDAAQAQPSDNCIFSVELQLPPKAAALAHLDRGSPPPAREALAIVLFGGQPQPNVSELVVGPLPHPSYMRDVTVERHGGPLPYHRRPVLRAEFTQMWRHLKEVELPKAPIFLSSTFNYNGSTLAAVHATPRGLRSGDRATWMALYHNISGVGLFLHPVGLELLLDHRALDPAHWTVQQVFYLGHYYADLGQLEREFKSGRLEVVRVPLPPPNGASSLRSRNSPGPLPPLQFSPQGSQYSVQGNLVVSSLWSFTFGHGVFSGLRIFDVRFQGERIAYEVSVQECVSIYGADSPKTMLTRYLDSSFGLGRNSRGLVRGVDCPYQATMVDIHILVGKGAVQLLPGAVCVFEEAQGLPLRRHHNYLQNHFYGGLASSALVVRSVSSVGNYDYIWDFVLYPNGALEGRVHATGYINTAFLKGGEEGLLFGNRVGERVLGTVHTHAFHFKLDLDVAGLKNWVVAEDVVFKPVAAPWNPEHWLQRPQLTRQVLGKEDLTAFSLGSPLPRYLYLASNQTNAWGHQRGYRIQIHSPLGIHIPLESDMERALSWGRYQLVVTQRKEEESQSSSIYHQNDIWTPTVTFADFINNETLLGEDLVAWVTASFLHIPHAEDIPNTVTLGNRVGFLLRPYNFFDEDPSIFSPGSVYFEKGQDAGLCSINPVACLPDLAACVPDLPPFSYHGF

[6] = tested on: BALB/c mice; experiment: LPS airway inflammation, 6 hour time point; settings: 6 hours after LPS
[7] = target: T3, VAP-1/SSAO in gonadal fat tissue homogenate (Oryctolagus cuniculus, UniProt A0A5F9CS97); experiment: SSAO activity, gonadal fat tissue homogenate; type: biochemical; settings: rabbit
T3 sequence (A0A5F9CS97 1-763): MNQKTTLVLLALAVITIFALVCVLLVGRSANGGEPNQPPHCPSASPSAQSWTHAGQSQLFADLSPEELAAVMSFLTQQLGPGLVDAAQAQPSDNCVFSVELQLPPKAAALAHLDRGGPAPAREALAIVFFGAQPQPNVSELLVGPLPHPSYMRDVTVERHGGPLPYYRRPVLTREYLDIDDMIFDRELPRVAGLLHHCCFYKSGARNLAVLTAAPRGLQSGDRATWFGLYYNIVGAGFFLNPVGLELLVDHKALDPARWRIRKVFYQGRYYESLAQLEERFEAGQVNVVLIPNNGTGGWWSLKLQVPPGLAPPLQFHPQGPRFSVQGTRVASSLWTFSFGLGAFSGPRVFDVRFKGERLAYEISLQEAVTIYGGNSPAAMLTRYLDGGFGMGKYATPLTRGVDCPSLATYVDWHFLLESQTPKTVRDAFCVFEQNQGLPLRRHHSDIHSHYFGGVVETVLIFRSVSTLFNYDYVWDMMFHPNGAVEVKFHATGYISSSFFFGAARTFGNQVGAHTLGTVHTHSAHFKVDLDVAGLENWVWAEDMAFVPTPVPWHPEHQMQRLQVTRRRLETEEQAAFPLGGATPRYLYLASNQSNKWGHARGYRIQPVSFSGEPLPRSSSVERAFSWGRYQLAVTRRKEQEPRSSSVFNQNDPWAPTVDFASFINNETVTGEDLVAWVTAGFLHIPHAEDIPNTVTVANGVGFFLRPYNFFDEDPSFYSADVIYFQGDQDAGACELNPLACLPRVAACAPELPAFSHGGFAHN

[8] = 24 hours, PXS-4728A 6 mg.kg^−1, dexamethasone 10 mg.kg^−1, oral 1 hour prior to infection

CC(C)(C)NC(=O)c1ccc(OC/C(=C/F)CN)cc1 [PXS-4728A]
Phospholipidosis [1]: does not induce
Plasma stability, remaining [2]: > 90%
IC50 [3]: < 10 nM
Neutrophil migration into the airway spaces (BALF) [4, 8]: significantly dampened
Total leukocyte migration into the airway spaces (BALF) [4, 8]: significantly dampened
Log 10-CFU in the lung (bacterial load), average ([4]; 24 hours, PXS-4728A 6 mg.kg^−1, dexamethasone 10 mg.kg^−1, vehicle 7.59): 8.27 LOG 10-CFU
Survival ([4]; treated 1 hour prior to infection and daily thereafter): not compromised
IC50 [5]: 2760 nM
Influx of neutrophils in BALF ([6]; PXS-4728A 0.2 or 2 mg.kg^−1, dexamethasone 10 mg.kg^−1, oral 1 hour prior): dampened migration significantly; also recorded: concentration-dependently reduced
Influx of total cells in BALF ([6]; PXS-4728A 0.2 or 2 mg.kg^−1 oral 1 hour prior): concentration-dependently reduced
IC50 [7]: < 10 nM
